Assay results as given in ChEMBL document CHEMBL5360572, “Advances of bioorthogonal coupling reactions in drug development” (Eur J Med Chem, 2023).

Assays:
[1] = biological target: T1, M-phase inducer phosphatase 3 (Homo sapiens, UniProt P30307); test: Inhibition of full-length recombinant human CDC25C using OMFP as substrate incubated for 5 to 8 mins by fluorescence based assay
T1 sequence (P30307 whole entry): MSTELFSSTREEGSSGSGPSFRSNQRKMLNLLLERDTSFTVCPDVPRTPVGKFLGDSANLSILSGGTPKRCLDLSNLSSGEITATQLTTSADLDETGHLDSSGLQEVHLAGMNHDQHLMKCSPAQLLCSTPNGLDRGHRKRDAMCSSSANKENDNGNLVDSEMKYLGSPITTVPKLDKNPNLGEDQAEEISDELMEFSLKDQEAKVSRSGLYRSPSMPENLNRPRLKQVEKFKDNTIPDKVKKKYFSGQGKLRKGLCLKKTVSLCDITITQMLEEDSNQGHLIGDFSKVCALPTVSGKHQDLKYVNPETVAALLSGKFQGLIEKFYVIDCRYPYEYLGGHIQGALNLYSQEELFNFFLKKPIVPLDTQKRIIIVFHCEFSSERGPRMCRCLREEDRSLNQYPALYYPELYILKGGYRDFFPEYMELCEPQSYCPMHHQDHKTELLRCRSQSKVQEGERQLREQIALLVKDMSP

[2] = biological target: T2, M-phase inducer phosphatase 1 (Homo sapiens, UniProt P30304); test: Inhibition of full-length recombinant human CDC25A using OMFP as substrate incubated for 5 to 8 mins by fluorescence based assay
T2 sequence (P30304 whole entry): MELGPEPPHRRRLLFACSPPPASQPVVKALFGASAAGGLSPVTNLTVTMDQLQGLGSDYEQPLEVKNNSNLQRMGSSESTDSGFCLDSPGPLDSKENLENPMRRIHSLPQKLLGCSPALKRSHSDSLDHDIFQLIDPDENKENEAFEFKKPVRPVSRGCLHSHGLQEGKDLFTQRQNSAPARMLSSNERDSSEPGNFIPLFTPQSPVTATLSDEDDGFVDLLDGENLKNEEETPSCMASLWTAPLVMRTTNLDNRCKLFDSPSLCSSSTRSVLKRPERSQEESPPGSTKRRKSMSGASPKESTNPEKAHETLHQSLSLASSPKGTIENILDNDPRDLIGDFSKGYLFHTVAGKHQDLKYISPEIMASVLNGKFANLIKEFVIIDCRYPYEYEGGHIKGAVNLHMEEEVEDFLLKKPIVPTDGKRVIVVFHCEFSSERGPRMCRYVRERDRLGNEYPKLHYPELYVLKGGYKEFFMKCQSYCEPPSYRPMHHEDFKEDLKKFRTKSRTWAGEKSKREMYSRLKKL

[3] = biological target: T3, M-phase inducer phosphatase 2 (Homo sapiens, UniProt P30305); test: Inhibition of full-length recombinant human CDC25B using OMFP as substrate incubated for 5 to 8 mins by fluorescence based assay
T3 sequence (P30305 whole entry): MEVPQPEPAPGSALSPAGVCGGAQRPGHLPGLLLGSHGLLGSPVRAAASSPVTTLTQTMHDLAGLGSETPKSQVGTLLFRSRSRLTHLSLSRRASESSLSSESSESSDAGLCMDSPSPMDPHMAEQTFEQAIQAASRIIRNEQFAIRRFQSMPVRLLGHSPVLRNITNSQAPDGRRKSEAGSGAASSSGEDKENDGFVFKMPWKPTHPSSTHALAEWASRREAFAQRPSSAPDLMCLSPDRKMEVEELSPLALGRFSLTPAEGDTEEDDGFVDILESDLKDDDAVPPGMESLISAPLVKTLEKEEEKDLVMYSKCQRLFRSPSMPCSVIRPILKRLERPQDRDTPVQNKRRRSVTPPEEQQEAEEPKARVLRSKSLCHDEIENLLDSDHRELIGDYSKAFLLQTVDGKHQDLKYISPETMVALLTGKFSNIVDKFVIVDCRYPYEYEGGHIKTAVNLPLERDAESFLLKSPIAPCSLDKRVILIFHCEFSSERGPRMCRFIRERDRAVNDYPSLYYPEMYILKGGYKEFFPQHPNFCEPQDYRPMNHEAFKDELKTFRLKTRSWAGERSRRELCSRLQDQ

IC50 [1]: 60 nM
IC50 [2]: 150 nM
IC50 [3]: 190 nM
Compound: CC(NC1=C(Cl)C(=O)c2cccnc2C1=O)c1cn(-c2ccc(CO)cc2)nn1 (stereo not drawn)
